Results from the NIST ThermoML archive (doi:10.1016/j.tca.2013.12.015).

Assay: mn = molality of the nth substance listed, in mol/kg
Details: 101 kPa, Liquid; for speed of sound: Single path-length method; for mass density: Vibrating tube method

CCCCn1cc[n+](C)c1.[Br-] [1-butyl-3-methylimidazolium bromide] + O
Details | mass density, 288.15 K [kg/m3] | mass density, 293.15 K [kg/m3] | mass density, 298.15 K [kg/m3] | mass density, 303.15 K [kg/m3] | mass density, 308.15 K [kg/m3] | speed of sound, 288.15 K [m/s] | speed of sound, 293.15 K [m/s] | speed of sound, 298.15 K [m/s] | speed of sound, 303.15 K [m/s] | speed of sound, 308.15 K [m/s]
m1 = 0.1019 | 1004.34 | 1003.53 | 1002.16 | 1000.83 | 999.035 | 1479 | 1494.2 | 1506.8 | 1518.8 | 1528.1
m1 = 0.3048 | 1000.67 | 999.754 | 998.577 | 997.164 | 995.54 | 1470.2 | 1486.1 | 1500 | 1512.1 | 1522.2

CCOC(=O)CC(C)=O [ethyl 3-oxobutanoate] + O
Details | mass density, 288.15 K [kg/m3] | mass density, 293.15 K [kg/m3] | mass density, 298.15 K [kg/m3] | mass density, 303.15 K [kg/m3] | mass density, 308.15 K [kg/m3] | speed of sound, 288.15 K [m/s] | speed of sound, 293.15 K [m/s] | speed of sound, 298.15 K [m/s] | speed of sound, 303.15 K [m/s] | speed of sound, 308.15 K [m/s]
m1 = 0.076 | 1000.05 | 999.128 | 997.91 | 996.474 | 994.809 | 1472.6 | 1487.8 | 1501.3 | 1513 | 1523.1
m1 = 0.1625 | 1001.1 | 1000.13 | 998.838 | 997.358 | 995.64 | 1479.2 | 1493.6 | 1506.4 | 1517.4 | 1526.9
m1 = 0.2495 | 1002.14 | 1001.1 | 999.76 | 998.22 | 996.445 | 1485.5 | 1499.2 | 1511.2 | 1521.6 | 1530.4
m1 = 0.3767 | 1003.62 | 1002.48 | 1001.05 | 999.44 | 997.59 | 1494.1 | 1506.7 | 1517.7 | 1527.1 | 1535
m1 = 0.4725 | 1004.7 | 1003.48 | 1002 | 1000.32 | 998.41 | 1500 | 1511.7 | 1522 | 1530.8 | 1538.1
m1 = 0.5324 | 1005.38 | 1004.1 | 1002.58 | 1000.86 | 998.9 | 1503.4 | 1514.7 | 1524.5 | 1532.9 | 1539.8
m1 = 0.6848 | 1007.03 | 1005.6 | 1004 | 1002.18 | 1000.12 | 1511.6 | 1521.7 | 1530.5 | 1537.8 | 1543.7
m1 = 0.7843 | 1008.1 | 1006.56 | 1004.9 | 1003.01 | 1000.9 | 1516.3 | 1525.7 | 1533.7 | 1540.4 | 1545.8
m1 = 0.9019 | 1009.31 | 1007.65 | 1005.93 | 1003.94 | 1001.76 | 1521.4 | 1529.9 | 1537.2 | 1543.1 | 1547.8

COC(=O)CC(C)=O [methyl 3-oxobutanoate] + O
Details | mass density, 288.15 K [kg/m3] | mass density, 293.15 K [kg/m3] | mass density, 298.15 K [kg/m3] | mass density, 303.15 K [kg/m3] | mass density, 308.15 K [kg/m3] | speed of sound, 288.15 K [m/s] | speed of sound, 293.15 K [m/s] | speed of sound, 298.15 K [m/s] | speed of sound, 303.15 K [m/s] | speed of sound, 308.15 K [m/s]
m1 = 0.0809 | 1000.36 | 999.43 | 998.205 | 996.78 | 995.12 | 1472.5 | 1487.7 | 1501.3 | 1513.1 | 1523.2
m1 = 0.1654 | 1001.65 | 1000.66 | 999.37 | 997.9 | 996.2 | 1477.3 | 1491.9 | 1504.8 | 1516.1 | 1525.7
m1 = 0.285 | 1003.44 | 1002.36 | 1001 | 999.454 | 997.68 | 1484.7 | 1498.3 | 1510.5 | 1521 | 1529.9
m1 = 0.386 | 1004.9 | 1003.75 | 1002.33 | 1000.73 | 998.91 | 1490.1 | 1503.1 | 1514.6 | 1524.4 | 1532.7
m1 = 0.4607 | 1005.98 | 1004.75 | 1003.3 | 1001.65 | 999.79 | 1494.2 | 1506.6 | 1517.6 | 1527 | 1534.9
m1 = 0.5604 | 1007.37 | 1006.06 | 1004.56 | 1002.85 | 1000.94 | 1499.6 | 1511.4 | 1521.7 | 1530.5 | 1537.9
m1 = 0.6367 | 1008.4 | 1007.01 | 1005.53 | 1003.74 | 1001.79 | 1503 | 1514.2 | 1524.1 | 1532.5 | 1539.5
m1 = 0.7871 | 1010.4 | 1008.9 | 1007.35 | 1005.47 | 1003.45 | 1509.8 | 1520.2 | 1529.1 | 1536.7 | 1542.9
m1 = 0.8429 | 1011.13 | 1009.58 | 1008 | 1006.11 | 1004.04 | 1512.2 | 1522.2 | 1530.9 | 1538.1 | 1544

O [water] + CCCCn1cc[n+](C)c1.[Br-]
Details | mass density [kg/m3]
308.15 K, m2 = 0 | 994.062

O [water] + CCOC(=O)CC(C)=O
Details | mass density [kg/m3]
308.15 K, m2 = 0 | 994.062

O [water] + COC(=O)CC(C)=O
Details | mass density [kg/m3]
308.15 K, m2 = 0 | 994.062
